Experimental data as given in patent US10196386B2, “Compounds having muscarinic receptor antagonist and beta2 adrenergic receptor agonist activity” (priority 2016, dated 2019).

What was measured:
Human M3 receptor = molecular target: T1, Human M3 receptor (Homo sapiens, UniProt P20309); test: biochemical; format: binding; settings: read-out: M3 Range
T1 construct: purchased Perkin Elmer

Human β2 adrenoceptor = molecular target: T2, Human β2 adrenoceptor (Homo sapiens, UniProt P07550); test: β2 adrenoceptor radioligand binding assay
T2 construct: purchased Perkin Elmer
T2 sequence (P07550 whole entry): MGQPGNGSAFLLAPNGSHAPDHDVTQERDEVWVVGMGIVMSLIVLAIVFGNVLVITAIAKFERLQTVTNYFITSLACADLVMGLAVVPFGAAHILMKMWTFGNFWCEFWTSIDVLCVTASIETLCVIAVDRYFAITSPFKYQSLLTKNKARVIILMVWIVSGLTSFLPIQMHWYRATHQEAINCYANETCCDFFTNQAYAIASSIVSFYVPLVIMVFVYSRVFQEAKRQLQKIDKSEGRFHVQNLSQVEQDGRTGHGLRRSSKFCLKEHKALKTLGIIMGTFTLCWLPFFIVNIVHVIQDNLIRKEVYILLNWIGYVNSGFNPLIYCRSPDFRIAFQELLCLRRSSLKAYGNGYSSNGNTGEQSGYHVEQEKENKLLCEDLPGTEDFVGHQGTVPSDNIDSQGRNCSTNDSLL
How it was run: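 Human β2 receptor membranes incubated 1 h at room temperature with 0.3 nM [125I]cyanopindolol and compound in pH 7.4 HEPES buffer (0.5% DMSO); 2 μM s-propranolol defined non-specific binding. Bound label counted after filtration; IC50 from competition curves, converted to Ki via Cheng–Prusoff.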

T1 sequence (P20309 whole entry): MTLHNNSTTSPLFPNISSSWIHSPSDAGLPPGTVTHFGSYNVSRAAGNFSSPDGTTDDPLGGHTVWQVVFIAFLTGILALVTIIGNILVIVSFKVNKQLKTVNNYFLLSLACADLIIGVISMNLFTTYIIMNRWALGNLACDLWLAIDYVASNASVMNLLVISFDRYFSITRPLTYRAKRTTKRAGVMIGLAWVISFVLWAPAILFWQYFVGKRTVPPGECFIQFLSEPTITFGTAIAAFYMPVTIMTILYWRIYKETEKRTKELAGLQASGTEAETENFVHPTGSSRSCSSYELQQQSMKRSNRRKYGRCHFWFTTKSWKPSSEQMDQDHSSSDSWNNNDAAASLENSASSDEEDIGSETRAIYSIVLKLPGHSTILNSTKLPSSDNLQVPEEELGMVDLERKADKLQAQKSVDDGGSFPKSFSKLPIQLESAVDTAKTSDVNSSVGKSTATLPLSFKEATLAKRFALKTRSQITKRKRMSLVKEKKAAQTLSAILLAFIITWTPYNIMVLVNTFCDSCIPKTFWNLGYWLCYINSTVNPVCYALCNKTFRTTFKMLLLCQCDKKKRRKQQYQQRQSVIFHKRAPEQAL

| SMILES | IC50 (Human M3 receptor) [nM] | IC50 (Human β2 adrenoceptor) [nM] |
| --- | --- | --- |
| O=C(NCCc1ccc(-c2cccc([C@](O)(C(=O)OCC3CCN(Cc4ccccc4)CC3)c3ccccc3)c2)s1)c1ccc(CNC[C@H](O)c2ccc(O)c3[nH]c(=O)ccc23)cc1 [Compound 5D, (1-Benzylpiperidin-4-yl)methyl (S)-2-hydroxy-2-(3-(5-(2-(4-((((R)-2-hydroxy-2-(8-hydroxy-2-oxo-1,2-dihydroquinolin-5-yl)ethyl)amino)methyl)-benzamido)ethyl)thiophen-2-yl)phenyl)-2-phenylacetate] | 0.3 to 3 | < 0.3 |
| COc1cc(C(=O)NCc2nccnc2-c2cccc([C@](O)(C(=O)OCC3CCN(Cc4ccccc4)CC3)c3ccccc3)c2)ccc1CNC[C@H](O)c1ccc(O)c2[nH]c(=O)ccc12 [Compound 5E, (1-Benzylpiperidin-4-yl)methyl (S)-2-hydroxy-2-(3-(3-((4-((((R)-2-hydroxy-2-(8-hydroxy-2-oxo-1,2-dihydroquinolin-5-yl)ethyl)amino)methyl)-3-methoxybenzamido)methyl)pyrazin-2-yl)phenyl)-2-phenylacetate] | 0.3 to 3 | < 0.3 |
| O=C(c1ccnc(-c2cccc([C@](O)(C(=O)OCC3CCN(Cc4ccccc4)CC3)c3ccccc3)c2)c1)N1CCC(CNC[C@H](O)c2ccc(O)c3[nH]c(=O)ccc23)CC1 [Compound 6, (1-Benzylpiperidin-4-yl)methyl (S)-2-hydroxy-2-(3-(4-(4-((((R)-2-hydroxy-2-(8-hydroxy-2-oxo-1,2-dihydroquinolin-5-yl)ethyl)amino)methyl)piperidine-1-carbonyl)pyridin-2-yl)phenyl)-2-phenylacetate] | 0.3 to 3 | < 0.3 |
| O=C(c1cncc(-c2cccc([C@](O)(C(=O)OCC3CCN(Cc4ccccc4)CC3)c3ccccc3)c2)n1)N1CCC(CNC[C@H](O)c2ccc(O)c3[nH]c(=O)ccc23)CC1 [Compound 6A, (1-Benzylpiperidin-4-yl)methyl (S)-2-hydroxy-2-(3-(6-(4-((((R)-2-hydroxy-2-(8-hydroxy-2-oxo-1,2-dihydroquinolin-5-yl)ethyl)amino)methyl)piperidine-1-carbonyl)pyrazin-2-yl)phenyl)-2-phenylacetate] | 0.3 to 3 | 0.3 to 3 |
| O=C(c1cc(-c2cccc([C@](O)(C(=O)OCC3CCN(Cc4ccccc4)CC3)c3ccccc3)c2)ccn1)N1CCC(CNC[C@H](O)c2ccc(O)c3[nH]c(=O)ccc23)CC1 [Compound 6B, (1-Benzylpiperidin-4-yl)methyl (S)-2-hydroxy-2-(3-(2-(4-((((R)-2-hydroxy-2-(8-hydroxy-2-oxo-1,2-dihydroquinolin-5-yl)ethyl)amino)methyl)piperidine-1-carbonyl)pyridin-4-yl)phenyl)-2-phenylacetate] | 0.3 to 3 | < 0.3 |
| O=C(c1ccc(-c2cccc([C@](O)(C(=O)OCC3CCN(Cc4ccccc4)CC3)c3ccccc3)c2)cn1)N1CCC(CNC[C@H](O)c2ccc(O)c3[nH]c(=O)ccc23)CC1 [Compound 6C, (1-Benzylpiperidin-4-yl)methyl (S)-2-hydroxy-2-(3-(6-(4-((((R)-2-hydroxy-2-(8-hydroxy-2-oxo-1,2-dihydroquinolin-5-yl)ethyl)amino)methyl)piperidine-1-carbonyl)pyridin-3-yl)phenyl)-2-phenylacetate] | < 0.3 | < 0.3 |
| O=C(c1ccc(-c2cccc([C@](O)(C(=O)OCC3CCN(Cc4ccccc4)CC3)c3ccccc3)c2)nc1)N1CCC(CNC[C@H](O)c2ccc(O)c3[nH]c(=O)ccc23)CC1 [Compound 6D, (1-Benzylpiperidin-4-yl)methyl (S)-2-hydroxy-2-(3-(5-(4-((((R)-2-hydroxy-2-(8-hydroxy-2-oxo-1,2-dihydroquinolin-5-yl)ethyl)amino)methyl)piperidine-1-carbonyl)pyridin-2-yl)phenyl)-2-phenylacetate] | 0.3 to 3 | < 0.3 |
